# From patent publication US20180243290A1, “MORPHINAN COMPOUNDS FOR TREATING AGITATION” (Concert Pharmaceuticals, Inc., priority 2015, published 2018)
# Columns and labels:
# [1] = Metabolic stability in extensive metabolizer human liver microsomes with and without quinidine; assay type: in vitro ADME; settings: for CLint scaled at 100 ng/mL / half-life at 100 ng/mL: human; for CLint scaled at 100 ng/mL / % Δ (D6-Dimemorfan/Dimemorfan) of t1/2 / Clint, app Ratio (D6-Dimemorfan/Dimemorfan) / Clint, app Ratio (respective to 0 concentration of Quinidine) / t1/2 Ratio (respective to 0 concentration of Quinidine): EM HLM; for half-life at 100 ng/mL: EM HLM 1.0 mg/mL, 100 ng/mL test compound, 60 min
# Experimental: Individual donor with extensive metabolizer human liver microsomes (EM HLM) (20 mg/mL) with CYP2D6 activity of 957±19 pmol/mg protein/min, genotyped for CYP2D6 allelic variant-CYP2D6*1/*2x2, were obtained from Xenotech, LLC (Lenexa, Kans.). β-nicotinamide adenine dinucleotide phosphate, reduced form (NADPH), magnesium chloride (MgCl2), dimethyl sulfoxide (DMSO), acetonitrile (ACN), quinidine, and dextromethorphan (DM) were purchased from Sigma-Aldrich. Dimemorfan and d6-dimemorfan (Compound 100) were synthesized by Adesis, Inc.
# 1.0 mg/mL stock solutions of test compounds dextromethorphan (DM), dimemorfan, and d6-dimemorfan (Compound 100) were prepared in DMSO. The 1.0 mg/mL stock solutions were diluted to 10,000 ng/mL in acetonitrile (ACN). A 10 mM stock solution of quinidine was prepared in acetonitrile, which was then diluted further in acetonitrile to produce 20 μM, 10 μM, 5 μM, 2.5 μM, and 1.25 μM solutions of quinidine. The human liver microsomes were diluted to 1.25 mg/mL in 0.1 M potassium phosphate buffer, pH 7.4, containing 3 mM MgCl2. The diluted microsomes were added to wells of a 96-well deep-well polypropylene plate in triplicate. A 5 μL aliquot of each 10,000 ng/mL test compound was added to the microsomes, and the mixture was pre-warmed at 37° C. for 7 minutes, then a 5 μL aliquot of each quinidine solution was added (except in control wells where no quinidine was added). Reactions were initiated by addition of pre-warmed NADPH solution to the mixture. The final reaction volume was 0.5 mL and contained 1.0 mg/mL human liver microsomes, 100 ng/mL of test compound, 0.2, 0.1, 0.05, 0.025, 0.0125, or 0 μM of quinidine, and 2 mM NADPH in 0.1 M potassium phosphate buffer, pH 7.4, and 3 mM MgCl2. The reaction mixtures were incubated at 37° C., and 50 μL aliquots were removed at 0, 15, 30, and 60 minutes and added to shallow-well 96-well plates which contained 50 μL of ice-cold ACN with internal standard to stop the reactions. The plates were stored at 4° C. for 20 minutes after which 100 μL of water was added to the wells of the plate before centrifugation to pellet precipitated proteins. Supernatants were transferred to another 96-well plate and analyzed for amounts of parent remaining by LC-MS/MS using an Applied Bio-systems mass spectrometer. Amount of parent remaining was quantified via standard curve.
# The in vitro till's for test compounds were calculated from the slopes of the linear regression of % parent remaining (1n) vs. incubation time relationship.
# k=−[slope of linear regression of % parent remaining(ln) vs incubation time]
# The apparent intrinsic clearance was calculated using the following equation:
# CLint (mL/min/kg)=(0.693/in vitro t1/2) (Incubation Volume/mg of microsomes) • (45 mg microsomes/gram of liver) (20 gm of liver/kg b.w.)
# Data analysis was performed using Microsoft Excel Software.
# [2] = healthy human males; cited from earlier work
# [3] = pH 7.4, with none (quinidine 0 µM, control), quinidine 0 μM
# [4] = pH 7.4, with quinidine 0.0125 µM, quinidine 0.0125 μM
# [5] = pH 7.4, with quinidine 0.025 µM, quinidine 0.025 μM
# [6] = pH 7.4, with quinidine 0.05 µM, quinidine 0.05 μM
# [7] = pH 7.4, with quinidine 0.1 µM, quinidine 0.1 μM
# [8] = pH 7.4, with quinidine 0.2 µM, quinidine 0.2 μM
Compound,"CLint scaled at 100 ng/mL [1, 3] [mL/min/kg]","half-life at 100 ng/mL [1, 3] [min]","CLint scaled at 100 ng/mL [1, 4] [mL/min/kg]","half-life at 100 ng/mL [1, 4] [min]","CLint scaled at 100 ng/mL [1, 5] [mL/min/kg]","half-life at 100 ng/mL [1, 5] [min]","CLint scaled at 100 ng/mL [1, 6] [mL/min/kg]","half-life at 100 ng/mL [1, 6] [min]","CLint scaled at 100 ng/mL [1, 7] [mL/min/kg]","half-life at 100 ng/mL [1, 7] [min]","CLint scaled at 100 ng/mL [1, 8] [mL/min/kg]","half-life at 100 ng/mL [1, 8] [min]","Clint, app Ratio (respective to 0 concentration of Quinidine) ([1]; quinidine 0 μM)",t1/2 Ratio (respective to 0 concentration of Quinidine) ([1]; quinidine 0 μM),"Clint, app Ratio (respective to 0 concentration of Quinidine) ([1]; quinidine 0.0125 μM)",t1/2 Ratio (respective to 0 concentration of Quinidine) ([1]; quinidine 0.0125 μM),"Clint, app Ratio (respective to 0 concentration of Quinidine) ([1]; quinidine 0.025 μM)",t1/2 Ratio (respective to 0 concentration of Quinidine) ([1]; quinidine 0.025 μM),"Clint, app Ratio (respective to 0 concentration of Quinidine) ([1]; quinidine 0.05 μM)",t1/2 Ratio (respective to 0 concentration of Quinidine) ([1]; quinidine 0.05 μM),other results
[2H]C([2H])([2H])c1ccc2c(c1)[C@]13CCCC[C@@H]1[C@H](C2)N(C([2H])([2H])[2H])CC3 [D6-Dimemorfan],48.2,6.5,30.9,10.1,23.6,13.2,17.3,18,10,31.1,8.2,37.9,1.0,1.0,0.64,1.6,0.49,2.0,0.36,2.8,"% Δ (D6-Dimemorfan/Dimemorfan) of t1/2 ([1]; quinidine 0 μM): 35%; Clint, app Ratio (D6-Dimemorfan/Dimemorfan) ([1]; quinidine 0 μM): 0.74; % Δ (D6-Dimemorfan/Dimemorfan) of t1/2 ([1]; quinidine 0.0125 μM): 59%; Clint, app Ratio (D6-Dimemorfan/Dimemorfan) ([1]; quinidine 0.0125 μM): 0.61; % Δ (D6-Dimemorfan/Dimemorfan) of t1/2 ([1]; quinidine 0.025 μM): 3%; Clint, app Ratio (D6-Dimemorfan/Dimemorfan) ([1]; quinidine 0.025 μM): 0.96; % Δ (D6-Dimemorfan/Dimemorfan) of t1/2 ([1]; quinidine 0.05 μM): 11%; Clint, app Ratio (D6-Dimemorfan/Dimemorfan) ([1]; quinidine 0.05 μM): 0.90; % Δ (D6-Dimemorfan/Dimemorfan) of t1/2 ([1]; quinidine 0.1 μM): 22%; Clint, app Ratio (D6-Dimemorfan/Dimemorfan) ([1]; quinidine 0.1 μM): 0.82; Clint, app Ratio (respective to 0 concentration of Quinidine) ([1]; quinidine 0.1 μM): 0.21; t1/2 Ratio (respective to 0 concentration of Quinidine) ([1]; quinidine 0.1 μM): 4.8; % Δ (D6-Dimemorfan/Dimemorfan) of t1/2 ([1]; quinidine 0.2 μM): −12%; Clint, app Ratio (D6-Dimemorfan/Dimemorfan) ([1]; quinidine 0.2 μM): 1.11; Clint, app Ratio (respective to 0 concentration of Quinidine) ([1]; quinidine 0.2 μM): 0.17; t1/2 Ratio (respective to 0 concentration of Quinidine) ([1]; quinidine 0.2 μM): 5.8"
"COc1ccc2c(c1)[C@]13CCCC[C@@H]1[C@H](C2)N(C)CC3 [DM, (+)-3-methoxy-17-methyl-(9α,13α,14α)-morphinan]",15.4,20.5,12.1,25.6,10.6,29.6,9.5,33,7.4,42.1,4.8,64.5,1.0,1.0,0.79,1.2,0.69,1.4,0.62,1.6,"Clint, app Ratio (respective to 0 concentration of Quinidine) ([1]; quinidine 0.1 μM): 0.48; t1/2 Ratio (respective to 0 concentration of Quinidine) ([1]; quinidine 0.1 μM): 2.1; Clint, app Ratio (respective to 0 concentration of Quinidine) ([1]; quinidine 0.2 μM): 0.31; t1/2 Ratio (respective to 0 concentration of Quinidine) ([1]; quinidine 0.2 μM): 3.1"
"Cc1ccc2c(c1)[C@]13CCCC[C@@H]1[C@H](C2)N(C)CC3 [Dimemorfan, (+)-(9α,13α,14α)-3,17-dimethylmorphinan]",64.9,4.81,50.8,6.34,24.7,12.8,19.3,16.2,12.2,25.5,7.4,43.1,1.0,1.0,0.78,1.3,0.38,2.7,0.30,3.4,"Clint, app Ratio (respective to 0 concentration of Quinidine) ([1]; quinidine 0.1 μM): 0.19; t1/2 Ratio (respective to 0 concentration of Quinidine) ([1]; quinidine 0.1 μM): 5.3; Clint, app Ratio (respective to 0 concentration of Quinidine) ([1]; quinidine 0.2 μM): 0.11; t1/2 Ratio (respective to 0 concentration of Quinidine) ([1]; quinidine 0.2 μM): 9.0; fraction of a dose metabolized [2]: Greater than 98%"
